According to patent US20260035359A1, “HERBICIDAL IMIDAZOLE COMPOUNDS” (SYNGENTA CROP PROTECTION AG, priority 2022, published 2026):

Columns and labels:
Type in all cases: in vivo
[1] = system: Amaranthus pa/meri (AMAPA); assay: Pre-emergence herbicidal glasshouse test; conditions: 250 g/ha, sprayed after one day cultivation, evaluated after 13 days
Procedure: (§1) Seeds of a variety of test species are sown in standard soil in pots Amaranthus pa/meri (AMAPA), Amaranthus retoflexus (AMARE), Echinochloa crus-gali (ECHCG), Ipomoea hederacea (IPOHE), Setaria faberi (SETFA). After cultivation for one day (pre-emergence) or after 8 days cultivation (post-emergence) under controlled conditions in a glasshouse (at 24/16° C., day/night; 14 hours light; 65% humidity), the plants are sprayed with an aqueous spray solution derived from the formulation of the technical active ingredient in acetone/water (50:50) solution containing 0.5% Tween 20 (polyoxyethelyene sorbitan monolaurate, CAS RN 9005-64-5). Compounds are applied at 250 g/ha unless otherwise stated. The test plants are then grown in a glasshouse under controlled conditions in a glasshouse (at 24/16° C., day/night; 14 hours light; 65% humidity) and watered twice daily. After 13 days for pre and post-emergence, the test is evaluated for the percentage damage caused to the plant. The biological activities are shown in the following table on a five-point scale (5=81-100%; 4=61-80%; 3=41-60%; 2=21-40%; 1=0-20%).

[2] = system: Ipomoea hederacea (IPOHE); assay: Pre-emergence herbicidal glasshouse test; conditions: 250 g/ha, sprayed after one day cultivation, evaluated after 13 days
Procedure: as §1

[3] = system: Amaranthus retoflexus (AMARE); assay: Pre-emergence herbicidal glasshouse test; conditions: 250 g/ha, sprayed after one day cultivation, evaluated after 13 days
Procedure: as §1

[4] = system: Echinochloa crus-gali (ECHCG); assay: Pre-emergence herbicidal glasshouse test; conditions: 250 g/ha, sprayed after one day cultivation, evaluated after 13 days
Procedure: as §1

Setaria faberi (SETFA) [5] = assay: Pre-emergence herbicidal glasshouse test; conditions: 250 g/ha, sprayed after one day cultivation, evaluated after 13 days
Procedure: as §1

[6] = system: Amaranthus pa/meri (AMAPA); assay: Post-emergence herbicidal glasshouse test; conditions: 250 g/ha, sprayed after 8 days cultivation, evaluated after 13 days
Procedure: as §1

[7] = system: Ipomoea hederacea (IPOHE); assay: Post-emergence herbicidal glasshouse test; conditions: 250 g/ha, sprayed after 8 days cultivation, evaluated after 13 days
Procedure: as §1

[8] = system: Amaranthus retoflexus (AMARE); assay: Post-emergence herbicidal glasshouse test; conditions: 250 g/ha, sprayed after 8 days cultivation, evaluated after 13 days
Procedure: as §1

[9] = system: Echinochloa crus-gali (ECHCG); assay: Post-emergence herbicidal glasshouse test; conditions: 250 g/ha, sprayed after 8 days cultivation, evaluated after 13 days
Procedure: as §1

Setaria faberi (SETFA) [10] = assay: Post-emergence herbicidal glasshouse test; conditions: 250 g/ha, sprayed after 8 days cultivation, evaluated after 13 days
Procedure: as §1

FC(F)(F)CCCc1nc(Cl)cn1Cc1ncc(Cl)cn1 [Compound 1.001, 5-chloro-2-[[4-chloro-2-(4,4,4-trifluorobutyl)imidazol-1-yl]methyl]pyrimidine]
percentage damage caused to the plant, AMAPA [1]: 2 (2=21-40%)
percentage damage caused to the plant, IPOHE [2]: 1 (1=0-20%)
percentage damage caused to the plant, AMARE [3]: 1 (1=0-20%)
percentage damage caused to the plant, ECHCG [4]: 1 (1=0-20%)
percentage damage caused to the plant, SETFA (Setaria faberi (SETFA) [5]): 1 (1=0-20%)
percentage damage caused to the plant, AMAPA [6]: 2 (2=21-40%)
percentage damage caused to the plant, IPOHE [7]: 2 (2=21-40%)
percentage damage caused to the plant, AMARE [8]: 2 (2=21-40%)
percentage damage caused to the plant, ECHCG [9]: 1 (1=0-20%)
percentage damage caused to the plant, SETFA (Setaria faberi (SETFA) [10]): 1 (1=0-20%)

CCCc1nc(C(F)(F)F)cn1Cc1ncc(Cl)cn1 [Compound 1.042]
percentage damage caused to the plant, AMAPA [1]: 4 (4=61-80%)
percentage damage caused to the plant, IPOHE [2]: 4 (4=61-80%)
percentage damage caused to the plant, AMARE [3]: 4 (4=61-80%)
percentage damage caused to the plant, ECHCG [4]: 1 (1=0-20%)
percentage damage caused to the plant, AMAPA [6]: 3 (3=41-60%)
percentage damage caused to the plant, IPOHE [7]: 3 (3=41-60%)
percentage damage caused to the plant, AMARE [8]: 3 (3=41-60%)
percentage damage caused to the plant, ECHCG [9]: 1 (1=0-20%)

FC(F)(F)c1cn(Cc2ncc(Cl)cn2)c(CCCCl)n1 [Compound 1.051, 5-chloro-2-[[2-(3-chloropropyl)-4-(trifluoromethyl)imidazol-1-yl]methyl]pyrimidine]
percentage damage caused to the plant, AMAPA [1]: 5 (5=81-100%)
percentage damage caused to the plant, IPOHE [2]: 5 (5=81-100%)
percentage damage caused to the plant, AMARE [3]: 5 (5=81-100%)
percentage damage caused to the plant, ECHCG [4]: 2 (2=21-40%)
percentage damage caused to the plant, AMAPA [6]: 4 (4=61-80%)
percentage damage caused to the plant, IPOHE [7]: 4 (4=61-80%)
percentage damage caused to the plant, AMARE [8]: 5 (5=81-100%)
percentage damage caused to the plant, ECHCG [9]: 4 (4=61-80%)

CCCCc1nc(C(F)F)cn1Cc1ncc(Cl)cn1 [Compound 1.053, 2-[[2-butyl-4-(difluoromethyl)imidazol-1-yl]methyl]-5-chloro-pyrimidine]
percentage damage caused to the plant, AMAPA [1]: 1 (1=0-20%)
percentage damage caused to the plant, IPOHE [2]: 1 (1=0-20%)
percentage damage caused to the plant, AMARE [3]: 1 (1=0-20%)
percentage damage caused to the plant, ECHCG [4]: 1 (1=0-20%)
percentage damage caused to the plant, AMAPA [6]: 1 (1=0-20%)
percentage damage caused to the plant, IPOHE [7]: 1 (1=0-20%)
percentage damage caused to the plant, AMARE [8]: 1 (1=0-20%)
percentage damage caused to the plant, ECHCG [9]: 1 (1=0-20%)

CCCCc1nc(C(F)(F)F)cn1Cc1ccc(Cl)cn1 [Compound 1.055]
percentage damage caused to the plant, AMAPA [1]: 1 (1=0-20%)
percentage damage caused to the plant, IPOHE [2]: 3 (3=41-60%)
percentage damage caused to the plant, AMARE [3]: 1 (1=0-20%)
percentage damage caused to the plant, ECHCG [4]: 1 (1=0-20%)
percentage damage caused to the plant, AMAPA [6]: 1 (1=0-20%)
percentage damage caused to the plant, IPOHE [7]: 1 (1=0-20%)
percentage damage caused to the plant, AMARE [8]: 1 (1=0-20%)
percentage damage caused to the plant, ECHCG [9]: 1 (1=0-20%)

CCCCc1nc(C(F)(F)F)cn1Cc1ccc(C#N)cn1 [Compound 1.056]
percentage damage caused to the plant, AMAPA [1]: 4 (4=61-80%)
percentage damage caused to the plant, IPOHE [2]: 2 (2=21-40%)
percentage damage caused to the plant, AMARE [3]: 4 (4=61-80%)
percentage damage caused to the plant, ECHCG [4]: 1 (1=0-20%)
percentage damage caused to the plant, AMAPA [6]: 2 (2=21-40%)
percentage damage caused to the plant, IPOHE [7]: 2 (2=21-40%)
percentage damage caused to the plant, AMARE [8]: 2 (2=21-40%)
percentage damage caused to the plant, ECHCG [9]: 1 (1=0-20%)

CCCCc1nc(C(F)(F)F)cn1Cc1ccc(Cl)cn1 [Compound 1.057]
percentage damage caused to the plant, AMAPA [1]: 5 (5=81-100%)
percentage damage caused to the plant, IPOHE [2]: 1 (1=0-20%)
percentage damage caused to the plant, AMARE [3]: 3 (3=41-60%)
percentage damage caused to the plant, ECHCG [4]: 1 (1=0-20%)
percentage damage caused to the plant, AMAPA [6]: 2 (2=21-40%)
percentage damage caused to the plant, IPOHE [7]: 2 (2=21-40%)
percentage damage caused to the plant, AMARE [8]: 3 (3=41-60%)
percentage damage caused to the plant, ECHCG [9]: 1 (1=0-20%)

CCCCc1nc(C(F)(F)F)cn1Cc1ncc(Cl)cc1F [Compound 1.058]
percentage damage caused to the plant, AMAPA [1]: 5 (5=81-100%)
percentage damage caused to the plant, IPOHE [2]: 5 (5=81-100%)
percentage damage caused to the plant, AMARE [3]: 5 (5=81-100%)
percentage damage caused to the plant, ECHCG [4]: 5 (5=81-100%)
percentage damage caused to the plant, AMAPA [6]: 3 (3=41-60%)
percentage damage caused to the plant, IPOHE [7]: 4 (4=61-80%)
percentage damage caused to the plant, AMARE [8]: 4 (4=61-80%)
percentage damage caused to the plant, ECHCG [9]: 4 (4=61-80%)

FC(F)(F)c1cn(Cc2ncc(Cl)cn2)c(CC2CCOC2)n1 (stereo not shown) [Compound 1.074]
percentage damage caused to the plant, AMAPA [1]: 5 (5=81-100%)
percentage damage caused to the plant, IPOHE [2]: 5 (5=81-100%)
percentage damage caused to the plant, AMARE [3]: 5 (5=81-100%)
percentage damage caused to the plant, ECHCG [4]: 3 (3=41-60%)
percentage damage caused to the plant, AMAPA [6]: 4 (4=61-80%)
percentage damage caused to the plant, IPOHE [7]: 4 (4=61-80%)
percentage damage caused to the plant, AMARE [8]: 4 (4=61-80%)
percentage damage caused to the plant, ECHCG [9]: 3 (3=41-60%)

FC(F)(F)c1cn(Cc2ncc(Cl)cn2)c(CC2CCOCC2)n1 [Compound 1.075]
percentage damage caused to the plant, AMAPA [1]: 5 (5=81-100%)
percentage damage caused to the plant, IPOHE [2]: 5 (5=81-100%)
percentage damage caused to the plant, AMARE [3]: 5 (5=81-100%)
percentage damage caused to the plant, ECHCG [4]: 4 (4=61-80%)
percentage damage caused to the plant, AMAPA [6]: 4 (4=61-80%)
percentage damage caused to the plant, IPOHE [7]: 4 (4=61-80%)
percentage damage caused to the plant, AMARE [8]: 4 (4=61-80%)
percentage damage caused to the plant, ECHCG [9]: 4 (4=61-80%)

CCCCc1nc(C(F)(F)F)cn1Cc1ncc(F)cn1 [Compound 1.077, 2-[[2-butyl-4-(trifluoromethyl)imidazol-1-yl]methyl]-5-fluoro-pyrimidine]
percentage damage caused to the plant, AMAPA [1]: 5 (5=81-100%)
percentage damage caused to the plant, IPOHE [2]: 5 (5=81-100%)
percentage damage caused to the plant, AMARE [3]: 5 (5=81-100%)
percentage damage caused to the plant, ECHCG [4]: 1 (1=0-20%)
percentage damage caused to the plant, AMAPA [6]: 2 (2=21-40%)
percentage damage caused to the plant, IPOHE [7]: 3 (3=41-60%)
percentage damage caused to the plant, AMARE [8]: 3 (3=41-60%)
percentage damage caused to the plant, ECHCG [9]: 1 (1=0-20%)

CCCCc1nc(I)c(I)n1Cc1ncc(Cl)cn1 [Compound 1.078]
percentage damage caused to the plant, AMAPA [1]: 1 (1=0-20%)
percentage damage caused to the plant, IPOHE [2]: 1 (1=0-20%)
percentage damage caused to the plant, AMARE [3]: 1 (1=0-20%)
percentage damage caused to the plant, ECHCG [4]: 1 (1=0-20%)
percentage damage caused to the plant, AMAPA [6]: 2 (2=21-40%)
percentage damage caused to the plant, IPOHE [7]: 1 (1=0-20%)
percentage damage caused to the plant, AMARE [8]: 2 (2=21-40%)
percentage damage caused to the plant, ECHCG [9]: 1 (1=0-20%)

CCCCc1nc(C(F)(F)F)cn1Cc1ccc(Cl)cn1 [Compound 1.081]
percentage damage caused to the plant, AMAPA [1]: 2 (2=21-40%)
percentage damage caused to the plant, IPOHE [2]: 1 (1=0-20%)
percentage damage caused to the plant, AMARE [3]: 2 (2=21-40%)
percentage damage caused to the plant, ECHCG [4]: 1 (1=0-20%)
percentage damage caused to the plant, AMAPA [6]: 3 (3=41-60%)
percentage damage caused to the plant, IPOHE [7]: 2 (2=21-40%)
percentage damage caused to the plant, AMARE [8]: 3 (3=41-60%)
percentage damage caused to the plant, ECHCG [9]: 1 (1=0-20%)
